Here are results for nine compounds from patent US10532053B2, “Histone deacetylase inhibitor, and preparation method and use thereof” (GUANGDONG ZHONGSHENG PHARMACEUTICAL CO., LTD, priority 2015, dated 2020).

pIC50: −log10 of the molar value. Where two headings read alike, the source gives them in different places.

One assay concerns the target T1, HDAC8 (Homo sapiens, UniProt Q9BY41).
T1 sequence (Q9BY41 1-377): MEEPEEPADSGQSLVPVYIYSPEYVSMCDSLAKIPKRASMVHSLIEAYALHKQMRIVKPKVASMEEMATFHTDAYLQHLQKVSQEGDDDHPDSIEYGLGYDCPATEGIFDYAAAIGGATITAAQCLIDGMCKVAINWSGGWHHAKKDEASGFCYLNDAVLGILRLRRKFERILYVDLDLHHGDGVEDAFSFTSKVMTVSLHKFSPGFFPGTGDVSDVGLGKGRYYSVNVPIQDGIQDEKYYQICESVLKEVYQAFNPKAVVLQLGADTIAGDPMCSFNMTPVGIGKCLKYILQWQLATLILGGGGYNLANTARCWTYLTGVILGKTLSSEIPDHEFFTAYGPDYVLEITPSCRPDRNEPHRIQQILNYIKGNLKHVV
The assay is described as follows: HDAC inhibitory activity, fluorescence-coupled acetylated peptide substrate assay.

The next assay concerns the target T2, HDAC6 (Homo sapiens, UniProt Q9UBN7).
T2 sequence (Q9UBN7 1-1215): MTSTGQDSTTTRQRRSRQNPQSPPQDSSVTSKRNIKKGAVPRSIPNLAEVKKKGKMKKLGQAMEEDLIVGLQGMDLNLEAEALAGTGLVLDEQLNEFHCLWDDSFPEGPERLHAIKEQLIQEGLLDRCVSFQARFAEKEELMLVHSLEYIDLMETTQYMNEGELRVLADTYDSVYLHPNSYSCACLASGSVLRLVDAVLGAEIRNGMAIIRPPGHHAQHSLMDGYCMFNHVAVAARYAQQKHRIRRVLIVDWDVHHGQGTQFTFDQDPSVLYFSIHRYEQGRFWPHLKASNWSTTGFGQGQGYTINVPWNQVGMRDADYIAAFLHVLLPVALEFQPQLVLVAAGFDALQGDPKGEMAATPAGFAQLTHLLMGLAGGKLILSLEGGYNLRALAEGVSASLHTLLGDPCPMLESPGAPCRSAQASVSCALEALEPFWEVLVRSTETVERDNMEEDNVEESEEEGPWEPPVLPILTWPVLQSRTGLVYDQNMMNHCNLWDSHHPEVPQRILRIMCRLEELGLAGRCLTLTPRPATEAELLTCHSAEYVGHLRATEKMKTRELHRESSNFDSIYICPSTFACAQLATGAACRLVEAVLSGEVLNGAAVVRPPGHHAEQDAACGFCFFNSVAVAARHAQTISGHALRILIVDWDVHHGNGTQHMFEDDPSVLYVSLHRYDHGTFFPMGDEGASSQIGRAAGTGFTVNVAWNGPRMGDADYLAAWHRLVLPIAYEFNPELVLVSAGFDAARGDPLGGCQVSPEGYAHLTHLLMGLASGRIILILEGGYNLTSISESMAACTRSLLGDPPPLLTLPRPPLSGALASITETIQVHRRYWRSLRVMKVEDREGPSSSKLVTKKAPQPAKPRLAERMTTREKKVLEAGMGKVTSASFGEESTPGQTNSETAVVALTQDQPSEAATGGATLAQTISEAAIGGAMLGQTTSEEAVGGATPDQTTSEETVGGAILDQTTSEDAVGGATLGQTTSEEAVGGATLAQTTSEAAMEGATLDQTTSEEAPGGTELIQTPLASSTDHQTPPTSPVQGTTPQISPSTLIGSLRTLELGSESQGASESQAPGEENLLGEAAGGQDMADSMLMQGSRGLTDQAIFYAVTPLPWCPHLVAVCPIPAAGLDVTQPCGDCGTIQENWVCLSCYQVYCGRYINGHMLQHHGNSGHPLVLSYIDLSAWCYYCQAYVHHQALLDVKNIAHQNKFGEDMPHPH
The assay is described as above. The assay is classed as biochemical. Particulars: for Selection Ratio HDAC1/6: ratio of IC50 HDAC1 to HDAC6; for Selection Ratio HDAC8/6: ratio of IC50 HDAC8 to HDAC6.

The subject of assay [1] is Human cervical cancer cell Hela. The assay is described as follows: Cell proliferative activity (MTT / cck-8). It is filed as cell-based. Particulars: incubated for 96 hours, read-out: Half-Inhibitory Concentration IC50 Human cervical cancer cell Hela. The method, then: (§1) Tumor cell line A375: human melanoma cell; H460: lung adenocarcinoma cell; Hela: human cervical cancer cell; HepG2: human liver cancer cell; and SKOV-3: human ovarian cancer cell, were all purchased from ATCC and cultured to logarithmic phase according to the cultivation protocol recommended by ATCC. The cells in the logarithmic phase were plated onto a 96-well plate at 2000-3000 cells/well; in the case of adherent cells, the cells should be adherent to the wall. […] After that, the cell proliferative activity was determined by MTT assay for the tumor cells representing the solid tumor model and by cck-8 assay for the tumor cells representing the hematologic tumor model.

For assay [2], the system named is Human ovarian cancer cell SKOV-3. The assay is described as follows: Cell proliferative activity (MTT / cck-8). The note with it: SK-OV-3, incubated for 96 hours, read-out: Half-Inhibitory Concentration IC50 Human ovarian cancer cell SKOV-3. It is filed as cell-based. The method, then:
as §1

Assay [3] relates to Human lung cancer cell H460. Put plainly: Cell proliferative activity (MTT / cck-8). The assay is classed as cell-based. Particulars: NCI-H460, incubated for 96 hours, read-out: Half-Inhibitory Concentration IC50 Human lung cancer cell H460. The protocol: as §1
Assay [4] deals with Human liver cancer cell HepG2. The assay is described as follows: Cell proliferative activity (MTT / cck-8). The assay is classed as cell-based. The note with it: incubated for 96 hours, read-out: Half-Inhibitory Concentration IC50 Human liver cancer cell HepG2. The method, then: as §1
The next assay has as its system Human melanoma A375. The assay is described as follows: Cell proliferative activity (MTT / cck-8). It is filed as cell-based. The note with it: A-375, incubated for 96 hours, read-out: Half-Inhibitory Concentration IC50 Human melanoma A375. The method, then: as §1
The target in another assay is T3, HDAC1 (Homo sapiens, UniProt Q13547).
T3 construct: purchased BPS Bioscience
T3 sequence (Q13547 whole entry): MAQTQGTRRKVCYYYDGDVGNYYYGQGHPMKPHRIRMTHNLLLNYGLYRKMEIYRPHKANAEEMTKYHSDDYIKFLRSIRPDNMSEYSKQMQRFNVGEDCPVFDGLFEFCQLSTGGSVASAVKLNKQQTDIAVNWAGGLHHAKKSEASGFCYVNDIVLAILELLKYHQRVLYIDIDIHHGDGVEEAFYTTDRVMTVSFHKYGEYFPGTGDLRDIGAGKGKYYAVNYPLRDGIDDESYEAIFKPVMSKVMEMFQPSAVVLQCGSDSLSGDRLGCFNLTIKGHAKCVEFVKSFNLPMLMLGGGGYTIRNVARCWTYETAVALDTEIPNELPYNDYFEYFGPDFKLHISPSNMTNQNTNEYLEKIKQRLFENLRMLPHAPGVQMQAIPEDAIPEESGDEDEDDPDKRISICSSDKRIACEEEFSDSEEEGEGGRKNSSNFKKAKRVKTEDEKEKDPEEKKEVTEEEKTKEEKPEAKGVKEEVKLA
Put plainly: HDAC inhibitory activity, fluorescence-coupled acetylated peptide substrate assay (Lys-Ac-AMC). It is filed as biochemical.

Protocol for HDAC1: (§2) The HDAC inhibitory activity was determined by fluorescence-coupled acetylated peptide substrate assay (Lys-Ac-AMC). HDAC1 protein was purchased from BPS Bioscience, and the reaction buffer system was a modified tris(hydroxymethyl)aminomethane buffer (pH 7.0). The small molecule compounds of the present invention were prepared by being dissolved in 100% DMSO. HDAC was prepared in a buffer at a certain concentration as an enzyme solution; trypsin and fluorescent group 4-amino-7-coumarin coupled-acetylated peptide (Ac-peptide) substrate were prepared in a buffer at a certain concentration as a substrate solution. The compounds were added into the reaction wells in a 384-well plate at a designed concentration of 10 μM, 1 μM, 0.5 μM, 0.1 μM, 0.05 μM, 0.01 μM, 0.005 μM, 0.001 μM, and 0.00005 μM, respectively, and then 15 μl of the HDAC solution was added into the reaction wells (15 μl of blank buffer to the control well). […] The results were analyzed by GraphPad Prism software and IC50 values were calculated according to the formula: Y=Background Data+(Top Data−Background Data)/(1+10^((Log IC50−X) a curve slope)), where Y: the inhibition rate (%) and X: the concentration of the compound.
Protocol for HDAC6: as §2
Protocol for HDAC8: as §2

On to `Cc1nc(N(C)c2ccc(OCC(=O)NO)cc2)c2ccccc2n1` [II-1, N-hydroxy-2-(4-(methyl(2-methyl-4-quinazolinyl)amino)phenoxy)acetamide], for which the pIC50 is under 6.00 at HDAC8 (IC50 HDAC8, Table 2); 5.93 on HDAC8 (read-out: IC50 HDAC8, Table 3); over 8.00 on HDAC6 (Table 2); 8.07 against HDAC6 (Table 3); 6.00 to 7.00 in assay [1]; 6.00 to 7.00 in assay [2]. The pIC50 in assay [3] was 6.00 to 7.00; in assay [4], 6.00 to 7.00; in the assay with Human melanoma A375, under 6.00; against HDAC1 (Table 2), 6.00 to 7.00; at HDAC1 (Table 3), 6.76. Further, the “Selection Ratio HDAC1/6” value on HDAC6 amounted to 20.0. Moreover, the “Selection Ratio HDAC8/6” value at HDAC6 amounted to 137.3.
In the case of `Cc1nc(N(C)c2ccc(OCCCCC(=O)NO)cc2)c2ccccc2n1` [II-3, N-hydroxy-5-(4-(methyl(2-methyl-4-quinazolinyl)amino)phenoxy)pentanamide], the pIC50 against HDAC8 (IC50 HDAC8, Table 2) was under 6.00; on HDAC8 (read-out: IC50 HDAC8, Table 3), 5.77; at HDAC6 (Table 2), 7.00 to 8.00; against HDAC6 (Table 3), 7.24; in assay [1], under 6.00; in assay [2], 6.00 to 7.00. The pIC50 in assay [3] is 6.00 to 7.00; in assay [4] it was under 6.00; in the assay on Human melanoma A375 it was under 6.00; against HDAC1 (Table 2) it was 6.00 to 7.00; on HDAC1 (Table 3), 6.35. Moreover, the “Selection Ratio HDAC1/6” value on HDAC6 is 7.9. Further, the “Selection Ratio HDAC8/6” value on HDAC6 worked out at 29.8.
For the compound `Cc1nc(N(C)c2ccc(OCCCCCC(=O)NO)cc2)c2ccccc2n1` [II-4, N-hydroxy-6-(4-(methyl(2-methyl-4-quinazolinyl)amino)phenoxy)hexanamide], the pIC50 at HDAC8 (IC50 HDAC8, Table 2) is under 6.00; at HDAC8 (read-out: IC50 HDAC8, Table 3), 5.82; against HDAC6 (Table 2), 7.00 to 8.00; on HDAC6 (Table 3), 7.47; in assay [1], under 6.00; in assay [2], 6.00 to 7.00. Also, the pIC50 in assay [3] was under 6.00; in assay [4] it was under 6.00; in the assay on Human melanoma A375, under 6.00; on HDAC1 (Table 2), 6.00 to 7.00; on HDAC1 (Table 3), 6.57. On HDAC6, the “Selection Ratio HDAC1/6” value came out at 8.0. For the same compound, the “Selection Ratio HDAC8/6” value at HDAC6 is recorded as 44.4.
For the compound `Cc1nc(N(C)c2ccc(OCc3ccc(C(=O)NO)cc3)cc2)c2ccccc2n1` [II-5, N-hydroxy-4-((4-(methyl(2-methyl-4-quinazolinyl)amino)phenoxy)methyl)benzamide], the pIC50 was under 6.00 at HDAC8 (IC50 HDAC8, Table 2); 5.62 at HDAC8 (IC50 HDAC8, Table 3); over 8.00 against HDAC6 (Table 2); 8.19 against HDAC6 (Table 3); under 6.00 in assay [1]; under 6.00 in assay [2]. Moreover, the pIC50 (in assay [3]; in assay [4]; in the assay with Human melanoma A375) was under 6.00 in each case. Besides, the “Selection Ratio HDAC1/6” value on HDAC6 amounted to 6.9. Besides, at HDAC6, the “Selection Ratio HDAC8/6” value is given as 371.3.
Take `Cc1nc(N(C)c2ccc(Oc3ccc(C(=O)NO)cc3)cc2)c2ccccc2n1` [II-6, N-hydroxy-4-(4-(methyl(2-methyl-4-quinazolinyl)amino)phenoxy)benzamide]: the pIC50 at HDAC8 (IC50 HDAC8, Table 2) is under 6.00; against HDAC8 (IC50 HDAC8, Table 3), 5.31; against HDAC6 (Table 2), 7.00 to 8.00; against HDAC6 (Table 3), 7.14; in assay [1] it was 6.00 to 7.00; in assay [2], 6.00 to 7.00. The pIC50 in assay [3] is 6.00 to 7.00; in assay [4], 6.00 to 7.00; in the assay on Human melanoma A375, 6.00 to 7.00; at HDAC1 (Table 2), 6.00 to 7.00; at HDAC1 (Table 3), 6.26. Moreover, the “Selection Ratio HDAC1/6” value at HDAC6 was 7.7. Besides, at HDAC6, the “Selection Ratio HDAC8/6” value is 68.5.
Consider `Cc1nc(N(C)c2ccc(Oc3ccc(C(=O)NO)cn3)cc2)c2ccccc2n1` [II-7, N-hydroxy-6-(4-(methyl(2-methyl-4-quinazolinyl)amino)phenoxy)nicotinamide], for which the pIC50 is under 6.00 on HDAC8 (IC50 HDAC8, Table 2); 5.90 on HDAC8 (IC50 HDAC8, Table 3); over 8.00 against HDAC6 (Table 2); 8.24 against HDAC6 (Table 3); 6.00 to 7.00 in assay [1]; 6.00 to 7.00 in assay [2]. Moreover, the pIC50 in assay [3] was 6.00 to 7.00; in assay [4], 6.00 to 7.00; in the assay with Human melanoma A375 it was 6.00 to 7.00; against HDAC1 (Table 2), 6.00 to 7.00; at HDAC1 (Table 3), 6.20. For the same compound, the “Selection Ratio HDAC1/6” value at HDAC6 came out at 110.0. The “Selection Ratio HDAC8/6” value on HDAC6 came out at 218.1.
In the case of `CN(c1ccc(OCCCC(=O)NO)cc1)c1ncnc2ccccc12` [II-13, N-hydroxy-4-(4-(methyl(4-quinazolinyl)amino)phenoxy)butanamide], the pIC50 against HDAC8 (IC50 HDAC8, Table 2) is under 6.00; on HDAC8 (read-out: IC50 HDAC8, Table 3), 5.61; on HDAC6 (Table 2) it was 7.00 to 8.00; on HDAC6 (Table 3), 7.47; in assay [1], 6.00 to 7.00; in assay [2], 6.00 to 7.00. The pIC50 in assay [3] was 6.00 to 7.00; in assay [4] it was 6.00 to 7.00; with Human melanoma A375, 6.00 to 7.00; against HDAC1 (Table 2), 7.00 to 8.00; on HDAC1 (Table 3), 7.12. In addition, at HDAC6, the “Selection Ratio HDAC1/6” value is recorded as 2.2. Moreover, the “Selection Ratio HDAC8/6” value at HDAC6 is reported as 72.3.
For the compound `CN(c1ccc(OCCCCC(=O)NO)cc1)c1ncnc2ccccc12` [II-14, N-hydroxy-5-(4-(methyl(4-quinazolinyl)amino)phenoxy)pentanamide], the pIC50 was under 6.00 on HDAC8 (IC50 HDAC8, Table 2); 5.88 on HDAC8 (read-out: IC50 HDAC8, Table 3); 7.00 to 8.00 against HDAC6 (Table 2); 7.31 at HDAC6 (Table 3); under 6.00 in assay [1]; under 6.00 in assay [2]. Also, the pIC50 was under 6.00 in assay [3]; under 6.00 in assay [4]; under 6.00 in the assay on Human melanoma A375; 6.00 to 7.00 against HDAC1 (Table 2); 6.69 at HDAC1 (Table 3). Besides, at HDAC6, the “Selection Ratio HDAC1/6” value stood at 4.1. Moreover, at HDAC6, the “Selection Ratio HDAC8/6” value turned out to be 27.1.
Take `CN(c1ccc(OCCCCCC(=O)NO)cc1)c1ncnc2ccccc12` [II-15, N-hydroxy-6-(4-(methyl(4-quinazolinyl)amino)phenoxy)hexanamide]: the pIC50 is under 6.00 against HDAC8 (IC50 HDAC8, Table 2); 5.98 on HDAC8 (read-out: IC50 HDAC8, Table 3); 7.00 to 8.00 on HDAC6 (Table 2); 7.72 against HDAC6 (Table 3); under 6.00 in assay [1]; under 6.00 in assay [2]. For the same compound, the pIC50 in assay [3] is under 6.00; in assay [4] it was under 6.00; in the assay with Human melanoma A375, 6.00 to 7.00; on HDAC1 (Table 2), 6.00 to 7.00; against HDAC1 (Table 3), 6.75. Further, the “Selection Ratio HDAC1/6” value at HDAC6 is 9.3. On HDAC6, the “Selection Ratio HDAC8/6” value is 55.7.
